Like-named read-outs stand apart in the source and are kept apart here.
Legend:
[1] = system: MDR1-MDCK cell monolayers; test: Blood-brain-barrier (BBB) penetration potential via MDCK-MDR1 permeability assay; settings: for MDCK-MDR1: % Recov A-B: A-B direction; for MDCK-MDR1: % Recov B-A: B-A direction
Experimental: (§1) Example A13: Assessment of Blood-Brain-Barrier (BBB) Penetration Potential Via an MDCK-MDR1 Permeability Assay
(§2) The permeability of compounds is assessed for BBB penetration potential by use of an MDCK-MDR1 assay (Catalog EA203) performed by Absorption Systems, Exton PA.
(§3) Experimental Procedure: MDR1-MDCK cell monolayers are grown to confluence on collagen-coated, microporous membranes in 12-well assay plates. The permeability assay buffer is Hanks' balanced salt solution containing 10 mM HEPES and 15 mM glucose at a pH of 7.4. The buffer in the receiver chamber also contained 1% bovine serum albumin. The dosing solution concentration is 5 μM of test article in the assay buffer. Cell monolayers are dosed on the apical side (A-to-B) or basolateral side (B-to-A) and incubated at 37° C. with 5% CO2 in a humidified incubator. Samples are taken from the donor and receiver chambers at 120 minutes. Each determination is performed in duplicate. The flux of lucifer yellow is also measured post-experimentally for each monolayer to ensure no damage is inflicted to the cell monolayers during the flux period. All samples are assayed by LC-MS/MS using electrospray ionization.
(§4) The apparent permeability (Papp) and percent recovery are calculated as follows:
(§5) Analytical Method: Liquid Chromatography. Column: Waters ACQUITY UPLC BEH Phenyl 30 ×2.1 mm, 1.7 μm; M.P. Buffer. 25 mM ammonium formate buffer, pH 3.5; Aqueous Reservoir (A): 90% water, 10% buffer, Organic Reservoir (B): 90% acetonitrile, 10% buffer, Flow Rate: 0.7 mL/minute; Gradient Program:
(§6) • Total Run Time: 1.00 minute • Autosampler. 2 μL injection volume • Wash1: water/methanol/2-propanol:1/1/1; with 0.2% formic acid • Wash2: 0.1% formic acid in water • Brain Penetration • Potential Classification: A-B Papp≥3.0 and Efflux Ratio <3.0: High • A-B Papp≥3.0 and 10≥Efflux Ratio >3.0: Moderate • A-B Papp≥3.0 and Efflux Ratio≥10: Low • A-B Papp<3.0: Low

MDR1 = test: as above; settings: dog, MDCK-MDR1, pH 7.4, MDCK-MDR1: Efflux, efflux ratio
Experimental: as §1, §2, §3, §4, §5, §6

MDR1 (P-gp) = test: as above; settings: dog; for Papp A→B at 120 min, 5 μM: MDCK-MDR1, pH 7.4, MDCK-MDR1: Papp A-B, A-B direction; for Papp B→A at 120 min, 5 μM: MDCK-MDR1, pH 7.4, MDCK-MDR1: Papp B-A, B-A direction
Experimental: as §1, §2, §3, §4, §5, §6

[2] = system: mHTT protein in GM04724 (CAG 70/20) Huntington's disease patient lymphoblast cells; test: mHTT protein assay, 2B7-MW1 assay via Mesoscale Discovery (MSD); format: cell-based, human; settings: GM04724 Huntington's disease patient lymphoblasts
Experimental: Example A10: mHTT Protein Assay
Compounds are tested on GM04724 (CAG 70/20) Huntington's disease patient lymphoblast cells at doses ranging from 10 μM to 0.6 nM. 4,500 cells/well are seeded in 384 well plates. One plate replica is carried out for parallel viability testing by CellTiter Glo (CTG). Compounds are incubated for 48 hours. mHTT protein levels are assessed by the 2B7-MW1 assay via Mesoscale Discovery (MSD) as previously reported (Macdonald et al., 2014). The antibody pair is comprised of previously characterized monoclonals (2B7 and MW1) interrogating two regions for HTT conformation and biological properties: the N, 17 domain and the polyQ domain (Baldo et al., 2012; Ko et., 2001). 2B7-MW1 is […] specific levels of HTT at the time of treatment. 2B7-MW1 is dependent on polyQ expansion (e.g., the higher the expansion the higher the signal) and on mHTT size (e.g., a similar polyQ will give higher signal with smaller HTT size). The viability readout is carried out by CTG according to the manufacturer's instructions.

[3] = system: SMN FL and SMN Δ7 in spinal muscular atrophy (SMA) patient fibroblasts (GM03813, Coriell); test: Quantitative splicing assay (SMN), qPCR; format: cell-based, human; settings: SMA patient fibroblasts GM03813, 24 h, qPCR, read-out: SMN2 Splicing FL EC50
Experimental: Spinal muscular atrophy (SMA) patient fibroblasts (GM03813, Coriell) are plated in 96-well plates at 50,000 cells/well. […] Treated cells are lysed and cDNA synthesized using the Fast Advanced Cells-to-Ct kit (Thermofisher A35378) according to the manufacturer's instructions. 2 μL of each cDNA are used in qPCR reactions. […] Reactions are run in a Quant Studio 6 qPCR instrument with default settings.

[4] = system: SMN protein in spinal muscular atrophy (SMA) patient fibroblasts (GM03813, Coriell); test: SMN protein assay, Mesoscale Discovery (MSD); format: cell-based, human; settings: SMA patient fibroblasts GM03813, 48 hours, MSD; read-out: SMN2 protein EC50
Experimental: Example A12: SMN Protein Assay
Compounds are tested on spinal muscular atrophy (SMA) patient fibroblasts (GM03813, Coriell) at doses ranging from 2.5 μM to 0.6 nM. 7000 cells/well are seeded in 96-well plates. Compounds are incubated for 48 hours and the cells were lysed with 100 μL of lysis buffer. 20 μL of lysate is used for SMN protein measurement by Mesoscale Discovery (MSD) assay developed by PharmOptima (Michigan). A standard curve prepared with SMN protein ranging from 1 μg/ml to 19.5 pg/ml is used in each MSD plate to calculate the absolute SMN protein amount in each sample.

COc1cc(-c2ccc(-c3ccc(N(C)[C@H]4CC5N[C@@H](C4)CC5(F)F)nn3)c(O)c2)cnn1 (single isomer, unassigned) [Compound 2A]
MDCK-MDR1: % Recov A-B [1]: 54%
MDCK-MDR1: % Recov B-A [1]: 81%
efflux ratio at 120 min, 5 μM (MDR1): 3
Papp A→B at 120 min, 5 μM (MDR1 (P-gp)): 113 nm/s
Papp B→A at 120 min, 5 μM (MDR1 (P-gp)): 390 nm/s
EC50 [2]: 16 to 50 nM
EC50 [3]: 16 to 50 nM
EC50 [4]: 16 to 50 nM

Cc1ccc(-c2ccc(-c3ccc(N(C)[C@@H]4C[C@H]5CC[C@H](N5)[C@@H]4F)nn3)c(O)c2)nn1 (single isomer, unassigned) [Compound 25A]
MDCK-MDR1: % Recov A-B [1]: 99%
MDCK-MDR1: % Recov B-A [1]: 99%
efflux ratio at 120 min, 5 μM (MDR1): 31
Papp A→B at 120 min, 5 μM (MDR1 (P-gp)): 17.9 nm/s
Papp B→A at 120 min, 5 μM (MDR1 (P-gp)): 550 nm/s
EC50 [2]: 101 to 500 nM
EC50 ([3]; Homo sapiens, Fibroblast, 24 h): 101 to 500 nM
EC50 [4]: 0.01 to 15 nM

CC#Cc1ccc(-c2ccc(N(C)[C@@H]3C[C@H]4CC[C@H](N4)[C@@H]3F)nn2)c(O)c1 (single isomer, unassigned) [Compound 30A]
MDCK-MDR1: % Recov A-B [1]: 35%
MDCK-MDR1: % Recov B-A [1]: 55%
efflux ratio at 120 min, 5 μM (MDR1): 2
Papp A→B at 120 min, 5 μM (MDR1 (P-gp)): 111 nm/s
Papp B→A at 120 min, 5 μM (MDR1 (P-gp)): 197 nm/s
EC50 [2]: 16 to 50 nM
EC50 ([3]; Homo sapiens, Fibroblast, 24 h): 51 to 100 nM
EC50 [4]: 0.01 to 15 nM

CNC(=O)c1ccc(-c2ccc(N(C)[C@H]3C[C@@H]4CC[C@@H](N4)[C@H]3F)nn2)c(O)c1 (single isomer, unassigned) [Compound 77B]
MDCK-MDR1: % Recov A-B [1]: 102%
MDCK-MDR1: % Recov B-A [1]: 106%
efflux ratio at 120 min, 5 μM (MDR1): 144
Papp A→B at 120 min, 5 μM (MDR1 (P-gp)): 2.8 nm/s
Papp B→A at 120 min, 5 μM (MDR1 (P-gp)): 403 nm/s
EC50 [2]: 101 to 500 nM
EC50 ([3]; Homo sapiens, Fibroblast, 24 h): 51 to 100 nM
EC50 [4]: 101 to 500 nM

CN(c1ccc(-c2cc3oc(=O)n(C)c3cc2O)nn1)[C@H]1C[C@@H]2CC[C@@H](N2)[C@H]1F (single isomer, unassigned) [Compound 79B]
MDCK-MDR1: % Recov A-B [1]: 90%
MDCK-MDR1: % Recov B-A [1]: 99%
efflux ratio at 120 min, 5 μM (MDR1): 16
Papp A→B at 120 min, 5 μM (MDR1 (P-gp)): 26.9 nm/s
Papp B→A at 120 min, 5 μM (MDR1 (P-gp)): 429 nm/s
EC50 [2]: 51 to 100 nM
EC50 ([3]; Homo sapiens, Fibroblast, 24 h): 101 to 500 nM
EC50 [4]: 16 to 50 nM

CN(C)C(=O)c1cc2cc(O)c(-c3ccc(N(C)[C@@H]4C[C@H]5CC[C@H](N5)[C@@H]4F)nn3)cc2o1 [Compound 9A, 6-(6-(((1S,2S,3R,5R)-2-fluoro-8-azabicyclo[3.2.1]octan-3-yl)(methyl)amino)pyridazin-3-yl)-5-hydroxy-N,N-dimethylbenzofuran-2-carboxamide]
MDCK-MDR1: % Recov A-B [1]: 108%
MDCK-MDR1: % Recov B-A [1]: 111%
efflux ratio at 120 min, 5 μM (MDR1): 80
Papp A→B at 120 min, 5 μM (MDR1 (P-gp)): 7.6 nm/s
Papp B→A at 120 min, 5 μM (MDR1 (P-gp)): 611 nm/s
EC50 [2]: 51 to 100 nM
EC50 ([3]; Homo sapiens, Fibroblast, 24 h): 16 to 50 nM
EC50 [4]: 0.01 to 15 nM

CN(C)C(=O)c1cc2cc(O)c(-c3ccc(N(C)[C@H]4C[C@@H]5CC[C@@H](N5)[C@H]4F)nn3)cc2o1 [Compound 9B, 6-(6-(((1R,2R,3S,5S)-2-fluoro-8-azabicyclo[3.2.1]octan-3-yl)(methyl)amino)pyridazin-3-yl)-5-hydroxy-N,N-dimethylbenzofuran-2-carboxamide]
MDCK-MDR1: % Recov A-B [1]: 88%
MDCK-MDR1: % Recov B-A [1]: 100%
efflux ratio at 120 min, 5 μM (MDR1): 78
Papp A→B at 120 min, 5 μM (MDR1 (P-gp)): 6.2 nm/s
Papp B→A at 120 min, 5 μM (MDR1 (P-gp)): 482 nm/s
EC50 [2]: 101 to 500 nM
EC50 ([3]; Homo sapiens, Fibroblast, 24 h): 101 to 500 nM
EC50 [4]: 16 to 50 nM

CN(c1ccc(-c2ccc(-n3ccnc3)cc2O)nn1)[C@@H]1C[C@H]2CCC[C@H](N2)[C@@H]1F [Compound 11A, 2-(6-(((1S,2S,3R,5R)-2-fluoro-9-azabicyclo[3.3.1]nonan-3-yl)(methyl)amino)pyridazin-3-yl)-5-(1H-imidazol-1-yl)phenol]
MDCK-MDR1: % Recov A-B [1]: 79%
MDCK-MDR1: % Recov B-A [1]: 90%
efflux ratio at 120 min, 5 μM (MDR1): 19
Papp A→B at 120 min, 5 μM (MDR1 (P-gp)): 27.6 nm/s
Papp B→A at 120 min, 5 μM (MDR1 (P-gp)): 532 nm/s
EC50 [2]: 0.01 to 15 nM
EC50 ([3]; Homo sapiens, Fibroblast, 24 h): 51 to 100 nM
EC50 [4]: 0.01 to 15 nM

CN(c1ccc(-c2ccc(-c3cnn(C)c3)cc2O)nn1)[C@H]1C[C@@H]2CCC[C@@H](N2)[C@H]1F [Compound 15B, 2-(6-(((1R,2R,3S,5S)-2-fluoro-9-azabicyclo[3.3.1]nonan-3-yl)(methyl)amino)pyridazin-3-yl)-5-(1-methyl-1H-pyrazol-4-yl)phenol]
MDCK-MDR1: % Recov A-B [1]: 62%
MDCK-MDR1: % Recov B-A [1]: 84%
efflux ratio at 120 min, 5 μM (MDR1): 12
Papp A→B at 120 min, 5 μM (MDR1 (P-gp)): 32.1 nm/s
Papp B→A at 120 min, 5 μM (MDR1 (P-gp)): 393 nm/s
EC50 [2]: 0.01 to 15 nM
EC50 ([3]; Homo sapiens, Fibroblast, 24 h): 0.01 to 15 nM
EC50 [4]: 0.01 to 15 nM

COc1cn(-c2ccc(-c3ccc(N(C)[C@@H]4C[C@H]5CC(F)(F)[C@@H](C4)N5)nn3)c(O)c2)cn1 [Compound 19A, 2-(6-(((1S,3R,5R)-6,6-difluoro-8-azabicyclo[3.2.1]octan-3-yl)(methyl)amino)pyridazin-3-yl)-5-(4-methoxy-1H-imidazol-1-yl)phenol]
MDCK-MDR1: % Recov A-B [1]: 81%
MDCK-MDR1: % Recov B-A [1]: 94%
efflux ratio at 120 min, 5 μM (MDR1): 6
Papp A→B at 120 min, 5 μM (MDR1 (P-gp)): 101 nm/s
Papp B→A at 120 min, 5 μM (MDR1 (P-gp)): 566 nm/s
EC50 [2]: 51 to 100 nM
EC50 ([3]; Homo sapiens, Fibroblast, 24 h): 51 to 100 nM
EC50 [4]: 0.01 to 15 nM

CN(c1ccc(-c2ccc(-c3cnn(C(F)F)c3)cc2O)nn1)[C@@H]1C[C@H]2CCC[C@H](N2)[C@@H]1F [Compound 21A, 5-(1-(difluoromethyl)-1H-pyrazol-4-yl)-2-(6-(((1S,2S,3R,5R)-2-fluoro-9-azabicyclo[3.3.1]nonan-3-yl)(methyl)amino)pyridazin-3-yl)phenol]
MDCK-MDR1: % Recov A-B [1]: 34%
MDCK-MDR1: % Recov B-A [1]: 71%
efflux ratio at 120 min, 5 μM (MDR1): 10
Papp A→B at 120 min, 5 μM (MDR1 (P-gp)): 19.9 nm/s
Papp B→A at 120 min, 5 μM (MDR1 (P-gp)): 193 nm/s
EC50 [2]: 16 to 50 nM
EC50 ([3]; Homo sapiens, Fibroblast, 24 h): 51 to 100 nM
EC50 [4]: 0.01 to 15 nM

CN(c1ccc(-c2cc(F)c(-c3ccn(C)c(=O)c3)cc2O)nn1)[C@@H]1C[C@H]2CC(F)(F)[C@@H](C1)N2 [Compound 22A, 4-(4-(6-(((1S,3R,5R)-6,6-difluoro-8-azabicyclo[3.2.1]octan-3-yl)(methyl)amino)pyridazin-3-yl)-2-fluoro-5-hydroxyphenyl)-1-methylpyridin-2(1H)-one]
MDCK-MDR1: % Recov A-B [1]: 86%
MDCK-MDR1: % Recov B-A [1]: 94%
efflux ratio at 120 min, 5 μM (MDR1): 45
Papp A→B at 120 min, 5 μM (MDR1 (P-gp)): 18.2 nm/s
Papp B→A at 120 min, 5 μM (MDR1 (P-gp)): 809 nm/s
EC50 ([3]; Homo sapiens, Fibroblast, 24 h): 0.01 to 15 nM
EC50 [4]: 0.01 to 15 nM

CN(c1ccc(-c2cc3c(F)cn(C)c(=O)c3cc2O)nn1)[C@@H]1C[C@H]2CC[C@H](N2)[C@@H]1F [Compound 54A, 4-fluoro-6-(6-(((1S,2S,3R,5R)-2-fluoro-8-azabicyclo[3.2.1]octan-3-yl)(methyl)amino)pyridazin-3-yl)-7-hydroxy-2-methylisoquinolin-1(2H)-one]
MDCK-MDR1: % Recov A-B [1]: 108%
MDCK-MDR1: % Recov B-A [1]: 115%
efflux ratio at 120 min, 5 μM (MDR1): 23
Papp A→B at 120 min, 5 μM (MDR1 (P-gp)): 35.4 nm/s
Papp B→A at 120 min, 5 μM (MDR1 (P-gp)): 826 nm/s
EC50 ([3]; Homo sapiens, Fibroblast, 24 h): 16 to 50 nM
EC50 [4]: 0.01 to 15 nM

CN(c1ccc(-c2cc3c(F)cn(C)c(=O)c3cc2O)nn1)[C@H]1C[C@@H]2CC[C@@H](N2)[C@H]1F [Compound 54B, 4-fluoro-6-(6-(((1R,2R,3S,5S)-2-fluoro-8-azabicyclo[3.2.1]octan-3-yl)(methyl)amino)pyridazin-3-yl)-7-hydroxy-2-methylisoquinolin-1(2H)-one]
MDCK-MDR1: % Recov A-B [1]: 99%
MDCK-MDR1: % Recov B-A [1]: 107%
efflux ratio at 120 min, 5 μM (MDR1): 27
Papp A→B at 120 min, 5 μM (MDR1 (P-gp)): 22.8 nm/s
Papp B→A at 120 min, 5 μM (MDR1 (P-gp)): 615 nm/s
EC50 ([3]; Homo sapiens, Fibroblast, 24 h): 0.01 to 15 nM
EC50 [4]: 0.01 to 15 nM

Source: US12509460B2 (Skyhawk Therapeutics, Inc., priority 2019, dated 2025)
